From US20230085307A1, “PYRIDAZINONE COMPOUND AND HERBICIDE” (NISSAN CHEMICAL CORPORATION, priority 2019, published 2023)

What was measured:
blackgrass [1] = experiment: Test Example 5: herbicidal effect by foliage application, plastic box (Table 20, symbol J); format: in vivo, blackgrass (Alopecurus myosuroides); conditions: foliage application, 320 g/ha, evaluated three weeks after application
Summary of the method: (§1)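 Post-emergence foliar test in sterilized diluvial soil. Compound applied as water-diluted emulsion at a predetermined rate to 14-day-old plants; evaluation at three weeks.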

blackgrass [2] = experiment: Test Example 4: herbicidal effect by soil treatment (Table 19, symbol J); format: in vivo, blackgrass (Alopecurus myosuroides); conditions: amount of applied herbicide 320 g/ha
Summary of the method: (§2)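 Scoring uses the grading scale of an earlier test, three weeks post-application. Treatment consists of spraying a diluted emulsion formulation across the surface of sterilized diluvial soil in which seeds are buried near 1.5 cm deep; boxes are kept in a greenhouse between 25° C. and 30° C.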

lambsquarters [3] = experiment: Test Example 5: herbicidal effect by foliage application, plastic box (Table 20, symbol O); format: in vivo, lambsquarters (Chenopodium album); conditions: foliage application, 320 g/ha, evaluated three weeks after application
Summary of the method: as §1

barnyard grass [4] = experiment: Test Example 4: herbicidal effect by soil treatment (Table 19, symbol H); format: in vivo, barnyard grass (Echinochloa crus-galli); conditions: amount of applied herbicide 320 g/ha
Summary of the method: as §2

windgrass [5] = experiment: Test Example 4: herbicidal effect by soil treatment (Table 19, symbol L); format: in vivo, windgrass (Apera spica-venti); conditions: amount of applied herbicide 320 g/ha
Summary of the method: as §2

barnyard grass [6] = experiment: Test Example 5: herbicidal effect by foliage application, plastic box (Table 20, symbol H); format: in vivo, barnyard grass (Echinochloa crus-galli); conditions: foliage application, 320 g/ha, evaluated three weeks after application
Summary of the method: as §1

barnyard grass [7] = experiment: Test Example 3: herbicidal effect by foliage application, Wagner pot (Table 18, symbol H); format: in vivo, barnyard grass (Echinochloa crus-galli); conditions: amount of applied herbicide 320 g/ha
Summary of the method: (§3)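 Plants were sown in alluvial soil held under 0.1–0.5 cm standing water and grown 14 days in a greenhouse at 25–30 °C. An emulsifiable formulation, water-diluted to the set dose, was then sprayed onto the foliage, and effects were scored three weeks later using previously defined criteria.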

windgrass [8] = experiment: Test Example 5: herbicidal effect by foliage application, plastic box (Table 20, symbol L); format: in vivo, windgrass (Apera spica-venti); conditions: foliage application, 320 g/ha, evaluated three weeks after application
Summary of the method: as §1

redroot pigweed [9] = experiment: Test Example 4: herbicidal effect by soil treatment (Table 19, symbol N); format: in vivo, redroot pigweed (Amaranthus retroflexus); conditions: amount of applied herbicide 320 g/ha
Summary of the method: as §2

velvetleaf [10] = experiment: Test Example 4: herbicidal effect by soil treatment (Table 19, symbol M); format: in vivo, velvetleaf (Abutilon theophrasti); conditions: amount of applied herbicide 320 g/ha
Summary of the method: as §2

rice flat sedge = experiment: Test Example 3: herbicidal effect by foliage application, Wagner pot (Table 18, symbol E); format: in vivo, rice flat sedge (Cyperus iria); conditions: amount of applied herbicide 320 g/ha
Summary of the method: as §3

chickweed [11] = experiment: Test Example 4: herbicidal effect by soil treatment (Table 19, symbol P); format: in vivo, common chickweed (Stellaria media); conditions: amount of applied herbicide 320 g/ha
Summary of the method: as §2

green foxtail [12] = experiment: Test Example 5: herbicidal effect by foliage application, plastic box (Table 20, symbol G); format: in vivo, green foxtail (Setaria viridis); conditions: foliage application, 320 g/ha, evaluated three weeks after application
Summary of the method: as §1

redroot pigweed [13] = experiment: Test Example 5: herbicidal effect by foliage application, plastic box (Table 20, symbol N); format: in vivo, redroot pigweed (Amaranthus retroflexus); conditions: foliage application, 320 g/ha, evaluated three weeks after application
Summary of the method: as §1

persian speedwell [14] = experiment: Test Example 4: herbicidal effect by soil treatment (Table 19, symbol R); format: in vivo, Persian speedwell (Veronica persica); conditions: amount of applied herbicide 320 g/ha
Summary of the method: as §2

green foxtail [15] = experiment: Test Example 4: herbicidal effect by soil treatment (Table 19, symbol G); format: in vivo, green foxtail (Setaria viridis); conditions: amount of applied herbicide 320 g/ha
Summary of the method: as §2

wild oat [16] = experiment: Test Example 4: herbicidal effect by soil treatment (Table 19, symbol I); format: in vivo, wild oat (Avena fatua); conditions: amount of applied herbicide 320 g/ha
Summary of the method: as §2

velvetleaf [17] = experiment: Test Example 5: herbicidal effect by foliage application, plastic box (Table 20, symbol M); format: in vivo, velvetleaf (Abutilon theophrasti); conditions: foliage application, 320 g/ha, evaluated three weeks after application
Summary of the method: as §1

persian speedwell [18] = experiment: Test Example 5: herbicidal effect by foliage application, plastic box (Table 20, symbol R); format: in vivo, Persian speedwell (Veronica persica); conditions: foliage application, 320 g/ha, evaluated three weeks after application
Summary of the method: as §1

Italian ryegrass [19] = experiment: Test Example 4: herbicidal effect by soil treatment (Table 19, symbol K); format: in vivo, Italian ryegrass (Lolium multiflorum); conditions: amount of applied herbicide 320 g/ha
Summary of the method: as §2

wild oat [20] = experiment: Test Example 5: herbicidal effect by foliage application, plastic box (Table 20, symbol I); format: in vivo, wild oat (Avena fatua); conditions: foliage application, 320 g/ha, evaluated three weeks after application
Summary of the method: as §1

late watergrass = experiment: Test Example 1: herbicidal activity, application before weed generation under submerged conditions (Table 16, symbol A); format: in vivo, late watergrass (Echinochloa oryzicola); conditions: 320 g/ha applied herbicide
Summary of the method: (§4)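 Emulsion formulation, water-diluted to set dose, was put onto the flooded surface (4 cm depth, alluvial soil) the same day weeds were sown and 2.5-leaf rice transplanted. After 3 weeks at 25-30 °C under glass, each species was rated 0 (≤5% kill) to 5 (≥90% kill).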

Chinese sprangletop = experiment: Test Example 3: herbicidal effect by foliage application, Wagner pot (Table 18, symbol D); format: in vivo, chinese sprangletop (Leptochloa chinensis); conditions: amount of applied herbicide 320 g/ha
Summary of the method: as §3

Japanese bulrush = experiment: Test Example 1: herbicidal activity, application before weed generation under submerged conditions (Table 16, symbol B); format: in vivo, Japanese bulrush (Schoenoplectus juncoides); conditions: 320 g/ha applied herbicide
Summary of the method: as §4

lambsquarters [21] = experiment: Test Example 4: herbicidal effect by soil treatment (Table 19, symbol O); format: in vivo, lambsquarters (Chenopodium album); conditions: amount of applied herbicide 320 g/ha
Summary of the method: as §2

Italian ryegrass [22] = experiment: Test Example 5: herbicidal effect by foliage application, plastic box (Table 20, symbol K); format: in vivo, Italian ryegrass (Lolium multiflorum); conditions: foliage application, 320 g/ha, evaluated three weeks after application
Summary of the method: as §1

southern crabgrass [23] = experiment: Test Example 5: herbicidal effect by foliage application, plastic box (Table 20, symbol F); format: in vivo, southern crabgrass (Digitaria ciliaris); conditions: foliage application, 320 g/ha, evaluated three weeks after application
Summary of the method: as §1

southern crabgrass [24] = experiment: Test Example 4: herbicidal effect by soil treatment (Table 19, symbol F); format: in vivo, southern crabgrass (Digitaria ciliaris); conditions: amount of applied herbicide 320 g/ha
Summary of the method: as §2

chickweed [25] = experiment: Test Example 5: herbicidal effect by foliage application, plastic box (Table 20, symbol P); format: in vivo, common chickweed (Stellaria media); conditions: foliage application, 320 g/ha, evaluated three weeks after application
Summary of the method: as §1

oval-leafed pondweed = experiment: Test Example 1: herbicidal activity, application before weed generation under submerged conditions (Table 16, symbol C); format: in vivo, oval-leafed pondweed (Monochoria vaginalis); conditions: 320 g/ha applied herbicide
Summary of the method: as §4

Cc1nn(C)c(=O)c(-c2c(-c3cccc(OC(F)(F)F)c3)sc3ccc(F)cc23)c1O [2-236]
herbicidal effect on J: blackgrass (criteria 0-5) (blackgrass [1]): 0 (Herbicidal rate of 5% or less (almost no effect)) | herbicidal effect on J: blackgrass (blackgrass [2]): 0 (Herbicidal rate of 5% or less (almost no effect)) | herbicidal effect on O: lambsquarters (criteria 0-5) (lambsquarters [3]): 2 (Herbicidal rate of 20% or more and less than 40%) | herbicidal effect on H: barnyard grass (barnyard grass [4]): 0 (Herbicidal rate of 5% or less (almost no effect)) | herbicidal effect on L: windgrass (windgrass [5]): 0 (Herbicidal rate of 5% or less (almost no effect)) | herbicidal effect on H: barnyard grass (criteria 0-5) (barnyard grass [6]): 0 (Herbicidal rate of 5% or less (almost no effect)) | herbicidal effect on H: barnyard grass (barnyard grass [7]): 4 (Herbicidal rate of 70% or more and less than 90%) | herbicidal effect on L: windgrass (criteria 0-5) (windgrass [8]): 1 (Herbicidal rate of 5% or more and less than 20%) | herbicidal effect on N: redroot pigweed (redroot pigweed [9]): 2 (Herbicidal rate of 20% or more and less than 40%) | herbicidal effect on M: velvetleaf (velvetleaf [10]): 0 (Herbicidal rate of 5% or less (almost no effect)) | herbicidal effect on E: rice flat sedge (rice flat sedge): 5 (Herbicidal rate of 90% or more (almost completely withered)) | herbicidal effect on P: chickweed (chickweed [11]): 0 (Herbicidal rate of 5% or less (almost no effect)) | herbicidal effect on G: green foxtail (criteria 0-5) (green foxtail [12]): 3 (Herbicidal rate of 40% or more and less than 70%) | herbicidal effect on N: redroot pigweed (criteria 0-5) (redroot pigweed [13]): 5 (Herbicidal rate of 90% or more (almost completely withered)) | herbicidal effect on R: persian speedwell (persian speedwell [14]): 0 (Herbicidal rate of 5% or less (almost no effect)) | herbicidal effect on G: green foxtail (green foxtail [15]): 0 (Herbicidal rate of 5% or less (almost no effect)) | herbicidal effect on I: wild oat (wild oat [16]): 0 (Herbicidal rate of 5% or less (almost no effect)) | herbicidal effect on M: velvetleaf (criteria 0-5) (velvetleaf [17]): 1 (Herbicidal rate of 5% or more and less than 20%) | herbicidal effect on R: persian speedwell (criteria 0-5) (persian speedwell [18]): 3 (Herbicidal rate of 40% or more and less than 70%) | herbicidal effect on K: Italian ryegrass (Italian ryegrass [19]): 0 (Herbicidal rate of 5% or less (almost no effect)) | herbicidal effect on I: wild oat (criteria 0-5) (wild oat [20]): 0 (Herbicidal rate of 5% or less (almost no effect)) | Herbicidal effect on A: late watergrass (grade 0-5) (late watergrass): 3 (Herbicidal rate of 40% or more and less than 70%) | herbicidal effect on D: Chinese sprangletop (Chinese sprangletop): 3 (Herbicidal rate of 40% or more and less than 70%) | Herbicidal effect on B: Japanese bulrush (grade 0-5) (Japanese bulrush): 3 (Herbicidal rate of 40% or more and less than 70%) | herbicidal effect on O: lambsquarters (lambsquarters [21]): 1 (Herbicidal rate of 5% or more and less than 20%) | herbicidal effect on K: Italian ryegrass (criteria 0-5) (Italian ryegrass [22]): 0 (Herbicidal rate of 5% or less (almost no effect)) | herbicidal effect on F: southern crabgrass (criteria 0-5) (southern crabgrass [23]): 0 (Herbicidal rate of 5% or less (almost no effect)) | herbicidal effect on F: southern crabgrass (southern crabgrass [24]): 0 (Herbicidal rate of 5% or less (almost no effect)) | herbicidal effect on P: chickweed (criteria 0-5) (chickweed [25]): 5 (Herbicidal rate of 90% or more (almost completely withered)) | Herbicidal effect on C: oval-leafed pondweed (grade 0-5) (oval-leafed pondweed): 2 (Herbicidal rate of 20% or more and less than 40%)
